From patent publication US5750531A, “Pyrimidine derivatives and processes for the preparation thereof” (Yuhan Corporation, priority 1994, dated 1998)

Columns and labels:
[1] = target: proton pump(H^+ /K^+ ATPase); test: Inhibition of proton pump(H^+ /K^+ ATPase) activity; assay type: biochemical; conditions: pH 6.0, 37° C., 30 minutes preincubation and 30 minutes reaction; read-out: IC50 Test compound
Description: Test 1: Inhibition of proton pump(H^+ /K^+ ATPase) activity
A proton pump enzyme source was prepared by the same method as in Experiment 1-1 of WO 94/14795. Further, the inhibitory effect of proton pump activity was measured by the same method as in Experiment 1-2 of WO 94/14795.
Namely, the proton pump activity stimulated by Mg^++ was used as a negative comparative group, and the activity stimulated by Mg^++ and K^+ was used as a positive comparative group. The comparative compound was omeprazole.
Test tubes were divided into 4 groups: Group 1 as negative comparative group(n=3), Group 2 as positive comparative group(n=3), Group 3(n=5×2) to be administered with the compound of the present invention and Group 4(n=5×2) to be administered with the comparative compound.
The inhibitory effects of Groups 3 and 4 on proton pump activity were measured by employing the compound prepared in Example and omeperazole, respectively, each of which was dissolved in dimethylsulfoxide at 5 different concentrations.
To each of Groups 1, 2, 3 and 4 were added 100 μl of magnesium chloride(40 mM) dissolved in 40 mM Tris-HCl buffer(pH 6.0) and 100μ of the enzyme source. Then, 50μ of potassium chloride(50 mM) and 50 μl of ammonium chloride(6 mM) dissolved in 40 mM Tris-HCl buffer(pH 6.0) were added to all groups except for Group 1.
10 μl of dimethylsulfoxide was added to each of Groups 1 and 2; and to Group 3 was added 10 μl of the solution in which the compound prepared in Example was dissolved in dimethylsulfoxide at 5 different concentrations(n=5×2). To Group 4, 10 μl of the solution prepared by dissolving omeprazole in dimethylsulfoxide at 5 different concentrations(37.6, 21.4, 12.2, 7.0 and 4.0 μM) was added(n=5×2). 40 mM Tris-HCl buffer(pH=6.0) was added thereto so as to make the total volume 400 μl.
Thereafter, the test tubes of each Group were placed at 37° C. for 30 minutes for the preincubation. 100 μl of ATP solution (6.6 mM) was added until the reaction volume became 500 μl. After the reaction was carried out at 37° C. for 30 minutes, 25% cold trichloroacetic acid was added to terminate the enzyme reaction. The released inorganic phosphate was measured by an automatic analyzer(Express 550, Corning).
The difference between Group 1 and Group 2 represents the proton pump activity activated by K^+ only. The inhibition percentages of Groups 3 and 4 were calculated from Litchfield-wilcoxon equation[see, e.g., J. pharmacol. Exp. Ther., 96, 99(1949)]. The concentrations of the test compounds which inhibit 50% of the proton pump activity are represented as IC50 in Table 1.

gastric secretion = test: Inhibition of gastric secretion (pylorus ligation, Shay method); assay type: in vivo, Male Sprague-Dawley rats; conditions: 20 mg/kg intraduodenally, 5 hours; for Relative Acid Output: acid output relative to omeprazole; for Rel. Vol.: gastric juice volume relative to omeprazole; for Rel. Conc.: acid concentration relative to omeprazole
Description: Inhibition of gastric secretion […] Under ether anesthesia, the abdomen was incised, and the pylorus was ligated. […] After closing the abdominal cavity, the rats were placed for 5 hours and then killed by cervical dislocation. The stomach was extracted to obtain gastric juice. The gastric juice was centrifuged at 1,000 g to remove precipitates. The amount and acidity of the gastric juice were measured. Relative volumes, relative acid concentrations and relative acid outputs of the test compounds were calculated from equations(I), (II) and (III) and the results are shown in Table 2. […] Group 3) (II) […] (III)

Structure (SMILES) | IC50 [1] [µM] | Relative Acid Output (gastric secretion) | Rel. Vol. (gastric secretion) | Rel. Conc. (gastric secretion)
Cc1cc(F)ccc1Nc1nccc(N2CCc3ccccc3C2C)n1.Cl (stereo not drawn) [Example 1, 2-(2-methyl-4-fluorophenylamino)-4-(1-methyl-1,2,3,4-tetrahydroisoquinolin-2-yl)pyrimidine hydrochloride] | 5.4 | 0.11 | 0.12 | –
Cc1cc(N2CCc3ccccc3C2C)nc(Nc2ccc(F)cc2C)n1.Cl (stereo not drawn) [Example 2, 6-methyl-2-(2-methyl-4-fluorophenylamino)-4-(1-methyl-1,2,3,4-tetrahydroisoquinolin-2-yl)pyrimidine hydrochloride] | 0.9 | 0.89 | 0.92 | 0.8
Cc1cc(N2CCc3ccccc3C2C)nc(Nc2ccc(F)cc2)n1.Cl (stereo not drawn) [Example 3, 6-methyl-4-(1-methyl-1,2,3,4-tetrahydroisoquinolin-2-yl)-2-(4-fluorophenylamino)pyrimidine hydrochloride] | 3.5 | 0.87 | 0.76 | 0.81
Cc1cc(N2CCc3ccccc3C2C)nc(N(C)c2ccccc2)n1.Cl (stereo not drawn) [Example 4, 6-methyl-2-(N-methylphenylamino)-4-(1-methyl-1,2,3,4-tetrahydroisoquinolin-2-yl)pyrimidine hydrochloride] | – | 0.87 | 0.99 | 0.56
CCc1cc(N2CCc3ccccc3C2C)nc(Nc2ccc(F)cc2C)n1.Cl (stereo not drawn) [Example 5, 6-ethyl-2-(2-methyl-4-fluorophenylamino)-4-(1-methyl-1,2,3,4-tetrahydroisoquinolin-2-yl)pyrimidine hydrochloride] | 1.3 | 0.61 | 0.59 | 0.27
CCc1cc(N2CCc3ccccc3C2C)nc(Nc2ccc(F)cc2)n1.Cl (stereo not drawn) [Example 6, 6-ethyl-2-(4-fluorophenylamino)-4-(1-methyl-1,2,3,4-tetrahydroisoquinolin-2-yl)pyrimidine hydrochloride] | 4.3 | 0.64 | 0.64 | 0.28
CCc1cc(N2CCc3ccccc3C2C)nc(N(C)c2ccccc2)n1.Cl (stereo not drawn) [Example 7, 6-ethyl-2-(N-methylphenylamino)-4-(1-methyl-1,2,3,4-tetrahydroisoquinolin-2-yl)pyrimidine hydrochloride] | – | 0.48 | 0.51 | 0.09
CCc1cc(N2CCc3ccccc3C2C)nc(Nc2ccccc2C)n1.Cl (stereo not drawn) [Example 8, 6-ethyl-2-(2-methylphenylamino)-4-(1-methyl-1,2,3,4-tetrahydroisoquinolin-2-yl)pyrimidine hydrochloride] | ~12.5 | 0.42 | 0.43 | 0.12
CCCc1cc(N2CCc3ccccc3C2C)nc(Nc2ccc(F)cc2C)n1.Cl (stereo not drawn) [Example 9, 2-(2-methyl-4-fluorophenylamino)-4-(1-methyl-1,2,3,4-tetrahydroisoquinolin-2-yl)-6-propylpyrimidine hydrochloride] | ~10 | 0.3 | 0.4 | –
CCCc1cc(N2CCc3ccccc3C2C)nc(Nc2ccc(F)cc2)n1.Cl (stereo not drawn) [Example 10, 4-(1-methyl-1,2,3,4-tetrahydroisoquinolin-2-yl)-6-propyl-2-(4-fluorophenylamino)pyrimidine hydrochloride] | 10.6 | 0.55 | 0.58 | 0.47
CCCc1cc(N2CCc3ccccc3C2C)nc(N(C)c2ccccc2)n1.Cl (stereo not drawn) [Example 11, 2-(N-methylphenylamino)-4-(1-methyl-1,2,3,4-tetrahydroisoquinolin-2-yl)-6-propylpyrimidine hydrochloride] | – | 0.82 | 0.99 | 0.41
Cc1cc(F)ccc1Nc1nc(C)c(C)c(N2CCc3ccccc3C2C)n1.Cl (stereo not drawn) [Example 12, 5,6-dimethyl-2-(2-methyl-4-fluorophenylamino)-4-(1-methyl-1,2,3,4-tetrahydroisoquinolin-2-yl)pyrimidine hydrochloride] | 0.6 | 0.75 | 1.64 | 0.29
Cc1cc(F)ccc1Nc1nc(C)c(C)c(N2CCc3ccccc3[C@H]2C)n1.Cl [Example 13, (R)-5,6-Dimethyl-2-(2-methyl-4-fluorophenylamino)-4-(1-methyl-1,2,3,4-tetrahydroisoquinolin-2-yl)pyrimidine hydrochloride] | 0.5 | 0.81 | 1.72 | 0.46
CC1c2ccccc2CCN1c1nc(N(C)c2ccccc2)nc2c1CCCC2.Cl (stereo not drawn) [Example 33, 2-(N-methylphenylamino)-4-(1-methyl-1,2,3,4-tetrahydroisoquinoline-2-yl)-5,6,7,8-tetrahydroquinazoline hydrochloride] | – | 0.94 | 0.93 | 1.13
Cc1cc(N2CCc3ccccc3C2)nc(N(C)c2ccccc2)n1.Cl [Example 36, 6-methyl-2-(N-methylphenylamino)-4-(1,2,3,4-tetrahydroisoquinolin-2-yl)pyrimidine hydrochloride] | – | 0.41 | 0.65 | 0.05
CCc1nc(Nc2ccc(F)cc2C)nc(N2CCc3ccsc3C2C)c1C.Cl (stereo not drawn) [Example 56, 5-methyl-2-(2-methyl-4-fluorophenylamino)-4-(7-methyl-4,5,6,7-tetrahydrothieno[2,3-c]pyridin-6-yl)-6-ethylpyrimidine hydrochloride] | – | 0.08 | 0.01 | 0.08
Cc1nc(N2CCc3ccccc3C2C)nc(N(C)c2ccccc2)c1C.Cl (stereo not drawn) [Example 71, 5,6-dimethyl-4-(N-methylphenylamino)-2-(1-methyl-1,2,3,4-tetrahydroisoquinolin-2-yl)pyrimidine hydrochloride] | – | 0.16 | 0.25 | –
Cc1nc(N2CCc3ccccc3[C@H]2C)nc(N(C)c2ccccc2)c1C.Cl [Example 72, (R)-5,6-dimethyl-4-(N-methylphenylamino)-2-(1-methyl-1,2,3,4-tetrahydroisoquinolin-2-yl)pyrimidine hydrochloride] | – | 0.25 | 0.34 | 0.16
Cc1nc(N2CCc3ccccc3[C@@H]2C)nc(N(C)c2ccccc2)c1C.Cl [Example 73, (S)-5,6-dimethyl-4-(N-methylphenylamino)-2-(1-methyl-1,2,3,4-tetrahydroisoquinolin-2-yl)pyrimidine hydrochloride] | – | 0.13 | 0.18 | –
Cc1nc(N2CCc3ccccc3C2)nc(N(C)c2ccccc2)c1C.Cl [Example 76, 5,6-dimethyl-4-(N-methylphenylamino)-2-(1,2,3,4-tetrahydroisoquinolin-2-yl)pyrimidine hydrochloride] | – | 0.33 | 0.28 | 0.17
Cc1nc(N2CCc3ccsc3C2C)nc(N(C)c2ccccc2)c1C.Cl (stereo not drawn) [Example 79, 5,6-dimethyl-4-(N-methylphenylamino)-2-(7-methyl-4,5,6,7-tetrahydrothieno[2,3-c]pyridin-6-yl)pyrimidine hydrochloride] | – | 0.49 | 0.54 | 1.28
CCc1nc(N2CCc3ccccc3C2C)nc(Nc2ccc(F)cc2C)c1C.Cl (stereo not drawn) [Example 80, 5-methyl-6-ethyl-4-(2-methyl-4-fluorophenylamino)-2-(1-methyl-1,2,3,4-tetrahydroisoquinolin-2-yl)pyrimidine hydrochloride] | – | 0.44 | 0.32 | 0.29
